Laboratory results reported in patent US8785445B2 (Array BioPharma Inc., priority 2008, dated 2014).

Target: T1, human DP2 (Homo sapiens, UniProt Q9Y5Y4)
T1 construct: expressed in transfected cells; membranes prepared
T1 sequence (Q9Y5Y4 1-395): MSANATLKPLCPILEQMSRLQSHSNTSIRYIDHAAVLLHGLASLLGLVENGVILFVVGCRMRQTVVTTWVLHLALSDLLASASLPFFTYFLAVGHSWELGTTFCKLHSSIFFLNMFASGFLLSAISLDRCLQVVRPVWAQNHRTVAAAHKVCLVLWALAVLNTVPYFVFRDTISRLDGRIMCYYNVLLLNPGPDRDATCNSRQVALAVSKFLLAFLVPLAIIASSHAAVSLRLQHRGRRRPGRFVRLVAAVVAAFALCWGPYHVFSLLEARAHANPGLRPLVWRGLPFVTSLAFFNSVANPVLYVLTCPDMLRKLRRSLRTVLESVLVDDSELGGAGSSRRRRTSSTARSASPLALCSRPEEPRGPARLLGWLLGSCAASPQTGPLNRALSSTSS
Assay: DP-2 binding inhibition assay (3H-PGD2, membranes of DP2-expressing K562 cells)
Settings: 4% HSA, read-out: EC50 (nM) 4% HSA
In short: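 Membranes from K562 clones stably expressing human DP2 were incubated 60 min at room temperature with 3H-PGD2 and compound, with 0.1% BSA, 1% HSA or 4% HSA, then filtered and counted.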

EC50 | SMILES
437 nM | O=C(Nc1ccnc(-c2cccc(Cl)c2)c1)c1ccc(Oc2cc3c(cc2Cl)C(C(=O)O)CCO3)cc1 (stereo not drawn) [Example 129, 6-Chloro-7-(4-(2-(3-chlorophenyl)pyridin-4-ylcarbamoyl)phenoxy)chroman-4-carboxylic acid]
5980 nM | O=C(Nc1ccc2cccc(Cl)c2n1)c1ccc(Oc2cc3c(cc2Cl)C(C(=O)O)CCO3)cc1 (stereo not drawn) [Example 25, 6-Chloro-7-(4-(8-chloroquinolin-2-ylcarbamoyl)phenoxy)chroman-4-carboxylic acid]
2070 nM | COc1cccc2cc(NC(=O)c3ccc(Oc4cc5c(cc4C#N)C(C(=O)O)CCO5)cc3)cnc12 (stereo not drawn) [Example 7, 6-Cyano-7-(4-(8-methoxyquinolin-3-ylcarbamoyl)phenoxy)chroman-4-carboxylic acid]
